Data reported in article PMC9501129 (Pharmaceutics, 2022).
Where two headings read alike, the source gives them in different places.

Experiments:
pregnant rats [1] = conditions: BIC orally up to 300 mg/kg/day, gestational day 6 to lactation/postpartum day 24; cited from earlier work
pregnant rats [2] = conditions: BIC orally 5, 30, or 300 mg/kg/day, gestational day 7 through 17; cited from earlier work
HIV = conditions: compared to RAL and EVG; cited from earlier work
[3] = cited from earlier work
pregnant rabbits = conditions: cited from earlier work
[4] = Amniotic fluid drug concentration in mouse pregnancy model (HPLC-MSMS); type: in vivo, C57BL/6J mice; conditions: female, C57BL/6J, mouse, amniotic fluid / maternal plasma, oral, pregnant mice
From the text: All animal experiments were approved by the University Health Network Animal Use Committee (protocol #2575) and performed according to the policies and guidelines of the Canadian Council on Animal Care. C57BL/6J mice bred in-house (original breeders from Jackson Laboratory RRID:IMSR JAX:000664) were maintained under a 12-h light/dark cycle, with ad libitum access to food and water. Animals were acclimated to their surroundings for 1 week prior to experiment initiation. Males were isolated for 7 days prior to mating. Female mice (7–12 weeks of age) were mated with males at a ratio of 2:1. Presence of vaginal plug was denoted as gestational day 0.5 (GD0.5). Pregnancy was confirmed by weight gain of >1.5 g on GD9.5 and >3 g on GD13.5. […] The equivalent mouse mg/kg dose was calculated based on the human dose divided by an assumed average human weight of 60 kg. […] On GD15.5, mice underwent saphenous bleed 24 h after the GD14.5 dose administration (trough). Immediately after the saphenous bleed, mice were dosed with the appropriate drug regimen and sacrificed 1 h post-treatment (peak), at which time blood was collected by cardiac puncture and amniotic fluid was collected by dissecting the uterus, puncturing the amniotic sac, and draining the amniotic fluid into a sterile dish. Amniotic fluid was pooled for the entire litter. Samples from 2 dams per arm were analyzed for drug levels.
Briefly, 50 μL of plasma or amniotic fluid was spiked with internal standard (ritonavir-d6) followed by protein precipitation with acetonitrile and filtration. Filtrates were diluted 1:9 with ammonium acetate buffer (10 mM) and analyzed by the HPLC-MSMS system, consisting of a Shimadzu Nexera XR high-performance liquid chromatograph (Shimadzu, Columbia, MD, USA) coupled with a SCIEX API 4500 QqQ mass spectrometer (SCIEX, Concord, ON, Canada). Chromatographic separation by Mobile Phase A (10% methanol, 5% 50 mM ammonium acetate, 85% 0.25% acetic acid pH 3.6 ± 0.2) and Mobile Phase B (90% methanol, 5% 50 mM ammonium acetate, 5% 0.25% acetic acid pH 6.6 ± 0.2) was performed under linear gradient conditions (flow rate 0.7 mL/min) on a reverse-phase Zorbax XDB-C18 column (Agilent Technologies, Santa Clara, CA, USA) maintained at 40 °C. […] HPLC-MSMS data were acquired using Analyst (v 1.6.3, SCIEX, Concord, ON, Canada) and analyzed with MultiQuant software (v 3.0.3, SCIEX, Concord, ON, Canada). […] Positive controls spiked in-house and prepared by an external laboratory during a sample exchange program were included in all runs.

[5] = ex-vivo dually perfused human cotyledon; cited from earlier work

For `O=C(NCc1c(F)cc(F)cc1F)c1cn2c(c(O)c1=O)C(=O)N1[C@H]3CC[C@H](C3)O[C@@H]1C2` [BIC, bictegravir], the “Adverse effects in fetuses or pups” value (pregnant rats [1]) is listed as “no significant adverse effects in fetuses or pups”, the Embryo-fetal effects (pregnant rats [2]) is listed as “no adverse embryo-fetal effects” and the “In vitro resistance profile” value (HIV) is listed as “improved in vitro resistance profile”. The Birth defects observed ([3]; interim report, 140 pregnancies in women treated with BIC during periconception or pregnancy) was “three”, the “Virological suppression through delivery” value ([3]; two pregnant women on BIC) was “remained virologically suppressed through delivery” and the “Maternal and pregnancy findings” value (pregnant rabbits; BIC 1000 mg/kg/day) was “Spontaneous abortion, decreased body weight, and maternal toxicity”. For the same molecule, the Embryo-fetal effects (pregnant rabbits; BIC orally 100, 300, or 1000 mg/kg/day, gestational day 7 through 19) was “no adverse embryo-fetal effects”, the Kp at 1 h ([4]; 1× to 10× BIC, 1 h after dosing, read-out: Ratio of drug in the amniotic fluid to that in maternal plasma) was 0.021 to 0.036 and the Kp at 1 h ([4]; 20× BIC dose, 1 h after dosing, read-out: Ratio of drug in the amniotic fluid to that in maternal plasma) was 0.112. It also gave a Kp at 1 h ([4]; BIC 0.83 mg/kg (1×) oral gavage once daily GD11.5-GD15.5 with TDF 50 mg/kg + FTC 33.3 mg/kg, mean (SD), n=2, read-out: Amniotic: Maternal Plasma Ratio 1 h) of 0.021, a Kp at 1 h ([4]; BIC 4.15 mg/kg (5×) oral gavage once daily GD11.5-GD15.5 with TDF 50 mg/kg + FTC 33.3 mg/kg, mean (SD), n=2, read-out: Amniotic: Maternal Plasma Ratio 1 h) of 0.021 and a Kp at 1 h ([4]; BIC 8.3 mg/kg (10×) oral gavage once daily GD11.5-GD15.5 with TDF 50 mg/kg + FTC 33.3 mg/kg, mean (SD), n=2, read-out: Amniotic: Maternal Plasma Ratio 1 h) of 0.036. The Kp at 1 h ([4]; BIC 16.6 mg/kg (20×) oral gavage once daily GD11.5-GD15.5 with TDF 50 mg/kg + FTC 33.3 mg/kg, mean (SD), n=2, read-out: Amniotic: Maternal Plasma Ratio 1 h) was 0.112 and the Placental transfer [5] was “low placental transfer”.
For `COc1cc2c(cc1Cc1cccc(Cl)c1F)c(=O)c(C(=O)O)cn2[C@H](CO)C(C)C` [EVG, elvitegravir], the “Drug levels in pregnancy” value ([3]; second and third trimester) is listed as “inadequate levels in the second and third trimester”.
